Among the test systems are MOLT-4; SK-OV-3; CCRF-CEM; HCC 2998; NCI-H23; PC-3; OVCAR-8; HL-60; DU-145; HT-29; CAKI-1; SNB-75; NCI-H522; UACC-62; SF-268; Malme-3M; HOP-62; U-251; SN12C; SNB-19.
Experiment in all cases: growth of human tumour cells (NCI), 48 h

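Compound exposure: 48 hours, 5 concentrations, 96-well plates. GI50: concentration for 50% inhibition of growth.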 Activity calls are given as the source filed them. Cut-off read from the data, not from the text of the source: active = GI50 up to about 1.1 µM and inactive = higher. Where only a bound is given, the exact number is not on record here.

Turning to `CCOC(=O)c1c(SCc2ccccc2)nc2c3ccccc3ccn12`, the GI50 with MOLT-4 is > 100 µM (inactive); with SK-OV-3, 52.7 µM (inactive); in the assay with CCRF-CEM, > 100 µM (inactive); in the assay with HCC 2998 it was > 100 µM (inactive); with NCI-H23 it was > 100 µM (inactive); with PC-3, > 100 µM (inactive). The GI50 with OVCAR-8 is 83.6 µM (inactive); in the assay with HL-60, > 100 µM (inactive); in the assay on DU-145, > 100 µM (inactive); in the assay on HT-29, > 100 µM (inactive); in the assay with CAKI-1, > 100 µM (inactive); in the assay with SNB-75 it was 25.9 µM (inactive). In addition, the GI50 with NCI-H522 is 37.2 µM (inactive); with UACC-62, > 100 µM (inactive); in the assay with SF-268, 94 µM (inactive); with Malme-3M, 63.7 µM (inactive); in the assay with HOP-62, 40.1 µM (inactive); in the assay on U-251, 57.7 µM (inactive). Also, in the assay with SN12C, the GI50 was > 100 µM (inactive).
Consider `COc1ccc(/C=N/NC(=O)c2ccc(O)c(CN(C)C)c2)cc1`, for which the GI50 in the assay on SNB-19, in the assay on MOLT-4, in the assay with SK-OV-3, in the assay with CCRF-CEM, in the assay with HCC 2998 and in the assay with NCI-H23 was > 100 µM (inactive) throughout. In addition, the GI50 in the assay with PC-3, with OVCAR-8, with HL-60, in the assay with DU-145, with HT-29 and in the assay with CAKI-1 was > 100 µM (inactive) each time. For the same compound, the GI50 in the assay with NCI-H522 was 10.5 µM (inactive); in the assay with UACC-62, > 100 µM (inactive); in the assay with SF-268, > 100 µM (inactive); in the assay with Malme-3M, > 100 µM (inactive); with HOP-62, > 100 µM (inactive); in the assay with U-251, > 100 µM (inactive). The GI50 with SN12C was > 100 µM (inactive).
Turning to `Cc1ccc2c(c1C)CC1(Cc3c(ccc4c3CCC4)C1=O)C2=O` (stereo unspecified), the GI50 with SNB-19, in the assay on MOLT-4, with SK-OV-3, in the assay with CCRF-CEM, with HCC 2998 and with NCI-H23 was > 100 µM (inactive) throughout. Also, the GI50 in the assay with PC-3 is 62.2 µM (inactive); with OVCAR-8, > 100 µM (inactive); in the assay on HL-60, > 100 µM (inactive); in the assay on DU-145, > 100 µM (inactive); in the assay on HT-29, > 100 µM (inactive); with CAKI-1 it was > 100 µM (inactive). Also, the GI50 with SNB-75 was 51.6 µM (inactive); with NCI-H522 it was > 100 µM (inactive); with UACC-62 it was > 100 µM (inactive); in the assay on SF-268 it was > 100 µM (inactive); with Malme-3M it was > 100 µM (inactive); in the assay with U-251, > 100 µM (inactive). The GI50 with SN12C is > 100 µM (inactive).
For the compound `CC(=O)OCCCC(NC(=O)OC(C)(C)C)C(=O)NC(CCCOC(C)=O)C(=O)NC(Cc1ccc([N+](=O)[O-])cc1)C(=O)NCC(=O)OCc1ccccc1` (stereo unspecified), the GI50 with SNB-19 was 17.8 µM (inactive); in the assay with MOLT-4, 37.6 µM (inactive); in the assay with SK-OV-3 it was 26.1 µM (inactive); in the assay on CCRF-CEM it was 29.7 µM (inactive); with HCC 2998, 18.9 µM (inactive); in the assay with NCI-H23 it was 14.3 µM (inactive). Also, the GI50 in the assay with PC-3 was 17.2 µM (inactive); in the assay with OVCAR-8, 17.3 µM (inactive); in the assay with HL-60, 3.15 µM (inactive); in the assay on DU-145, 16.4 µM (inactive); with HT-29, 17.9 µM (inactive); in the assay with CAKI-1 it was 18.5 µM (inactive). Besides, the GI50 in the assay with NCI-H522 was 18.1 µM (inactive); with UACC-62, 15.2 µM (inactive); in the assay with SF-268, 20.2 µM (inactive); with Malme-3M, 19.9 µM (inactive); with HOP-62, 19.5 µM (inactive); with U-251, 18.4 µM (inactive). For the same compound, the GI50 in the assay with SN12C is 17.7 µM (inactive).
In the case of `CC(C)(CC1(C)NC(=O)NC1=O)OCc1ccccc1` (stereo unspecified), the GI50 in the assay on SNB-19, with SK-OV-3, in the assay on HCC 2998, in the assay with NCI-H23, in the assay with PC-3 and in the assay with OVCAR-8 was > 100 µM (inactive) in each case. In addition, the GI50 is < 0.01 µM (active) in the assay with HL-60; > 100 µM (inactive) in the assay on DU-145; > 100 µM (inactive) in the assay with HT-29; > 100 µM (inactive) with CAKI-1; > 100 µM (inactive) in the assay on SNB-75; > 100 µM (inactive) with NCI-H522. Moreover, the GI50 in the assay on UACC-62, in the assay with SF-268, in the assay with Malme-3M, with HOP-62, with U-251 and in the assay with SN12C was > 100 µM (inactive) in each case.
`CCN(CC)c1ccc(C2SCC(=O)N2c2ccc(NC(=O)c3ccc(N4C(=O)CSC4c4ccc(N(CC)CC)cc4)cc3)cc2)cc1` (stereo unspecified): the GI50 is > 100 µM (inactive) in the assay with SNB-19; 29.7 µM (inactive) in the assay on MOLT-4; > 100 µM (inactive) in the assay with SK-OV-3; 35.5 µM (inactive) with CCRF-CEM; > 100 µM (inactive) in the assay on HCC 2998; > 100 µM (inactive) in the assay with NCI-H23. For the same compound, the GI50 in the assay on PC-3 was > 100 µM (inactive); with OVCAR-8 it was > 100 µM (inactive); in the assay with DU-145, > 100 µM (inactive); with HT-29 it was 75 µM (inactive); with CAKI-1, > 100 µM (inactive); in the assay with SNB-75 it was > 100 µM (inactive). The GI50 in the assay on NCI-H522 is > 100 µM (inactive); in the assay on UACC-62 it was > 100 µM (inactive); in the assay on SF-268, > 100 µM (inactive); with Malme-3M it was > 100 µM (inactive); in the assay with HOP-62, 89.7 µM (inactive); in the assay on U-251, > 100 µM (inactive). Further, the GI50 in the assay with SN12C was > 100 µM (inactive).
On to `CC(=O)NC1C(OCc2ccccc2)OC(CO)C(O)C1OCC(=O)NC(C)C(=O)NC(CCC(=O)NCCCCCNc1c2ccccc2nc2cccc([N+](=O)[O-])c12)C(N)=O` (stereo unspecified), for which the GI50 in the assay on SNB-19 was < 0.0001 µM (active); in the assay with MOLT-4, < 0.0001 µM (active); with CCRF-CEM it was 0.000861 µM (active); in the assay on HCC 2998, < 0.0001 µM (active); with NCI-H23, < 0.0001 µM (active); in the assay with PC-3, < 0.0001 µM (active). Further, the GI50 in the assay on OVCAR-8, in the assay with HL-60, in the assay on DU-145, in the assay on HT-29, with CAKI-1 and in the assay on SNB-75 was < 0.0001 µM (active) throughout. The GI50 with NCI-H522, in the assay with SF-268, with Malme-3M, in the assay with HOP-62, in the assay on U-251 and in the assay with SN12C was < 0.0001 µM (active) in each case.

The record behind these values is ChEMBL document CHEMBL1201862, “PubChem BioAssay data set” (2004).
